Where a name gives a salt, the structure may show the parent alone.

Sequence of human 5-HT2A receptor (P28223 whole entry): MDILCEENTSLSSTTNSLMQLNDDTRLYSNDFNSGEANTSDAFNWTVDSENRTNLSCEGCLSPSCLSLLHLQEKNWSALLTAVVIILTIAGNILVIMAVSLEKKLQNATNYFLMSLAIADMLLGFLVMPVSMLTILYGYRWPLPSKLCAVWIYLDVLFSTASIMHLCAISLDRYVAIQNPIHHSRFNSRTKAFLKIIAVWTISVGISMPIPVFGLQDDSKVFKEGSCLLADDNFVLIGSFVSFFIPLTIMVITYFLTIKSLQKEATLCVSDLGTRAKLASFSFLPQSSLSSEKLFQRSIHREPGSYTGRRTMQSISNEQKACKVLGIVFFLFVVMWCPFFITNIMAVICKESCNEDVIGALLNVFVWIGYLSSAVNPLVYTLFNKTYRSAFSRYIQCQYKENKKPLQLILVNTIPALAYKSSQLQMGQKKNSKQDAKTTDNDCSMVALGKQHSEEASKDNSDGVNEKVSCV

For the first experiment, the target named is human 5-HT2A receptor (Homo sapiens (Human), UniProt P28223). The experiment is described as follows: [125I]DOI radioligand binding assay. The conditions noted are these: 0.5 nM [125I]DOI, membranes of COS7 cells transfected with human 5-HT2A receptor. Here is the method:
For the IP accumulation assay (Example 10), HEK293 cells were transfected while for the DOI binding assay (Example 11) COS7 cells were transfected. Several protocols well known in the art can be used to transfect cells. The following protocol is representative of the transfection procedures used herein for COS7 or 293 cells.
On day one, COS-7 cells were plated onto 24 well plates, usually 1×10^5 cells/well or 2×10^5 cells/well, respectively. On day two, the cells were transfected by first mixing 0.25 μg cDNA in 50 μL serum-free DMEM/well and then 2 μl lipofectamine in 50 μL serum-free DMEM/well. The solutions (“transfection media”) were gently mixed and incubated for 15-30 minutes at room temperature. The cells were washed with 0.5 mL PBS and then 400 μL of serum free media was mixed with the transfection media and added to the cells. The cells were then incubated for 3-4 hours at 37° C./5% CO2. Then the transfection media was removed and replaced with 1 mL/well of regular growth media.
Compounds of the invention were tested for their ability to bind to a 5-HT2A receptor clone membrane preparation using a radioligand binding assay. Briefly, COS cells were transiently transfected with a pCMV expression vector containing a human 5-HT2A receptor (for the sequence of the receptor see U.S. Pat. No. 6,541,209, SEQ ID NO:24) as described in Example 9.
COS7 cells transfected with recombinant human 5-HT2A receptors were cultured for 48 hr post transfection, collected, washed with ice-cold phosphate buffered saline, pH7.4 (PBS), and then centrifuged at 48,000×g for 20 min at 4° C. The cell pellet was then resuspended in wash buffer containing 20 mM HEPES pH 7.4 and 0.1 mM EDTA, homogenized on ice using a Brinkman polytron, and recentrifuged at 48,000×g for 20 min. at 4° C. The resultant pellet was then resuspended in 20 mM HEPES, pH 7.4, homogenized on ice, and centrifuged (48,000×g for 20 min at 4° C.). Crude membrane pellets were stored at −80° C. until used for radioligand binding assays.
Radioligand binding assays for human 5-HT2A receptor was conducted using the 5-HT2 agonist [^125]DOI as radioligand. To define nonspecific binding, 10 μM DOI was used for all assays. For competitive binding studies, 0.5 nM [^125]DOI was used and compounds were assayed over a range of 0.01 nM to 10 μM. Assays were conducted in a total volume of 200 μl in 96-well Perkin Elmer GF/C filter plates in assay buffer (50 mM Tris-HCl, pH 7.4, 0.5 mM EDTA, 5 mM MgCl2, and 10 μM pargyline). Assay incubations were performed for 60 min at room temperature and were terminated by rapid filtration under vacuum pressure of the reaction mixture over Whatman GF/C glass fiber filters presoaked in 0.5% PEI using a Brandell cell harvestor. Filters were then washing several times with ice-cold wash buffer (50 mM Tris-HCl, pH 7.4). Plates were then dried at room temperature and counted in a Wallac microBeta scintillation counter.
As usually defined, the IC50 is the concentration at which inhibition is half-maximal. Higher therefore signals weaker potency. Turning to `Cn1nccc1-c1cc(NC(=O)C(=O)c2ccc(F)cc2)ccc1OCCN` [Compound 32, N-[4-(2-Amino-ethoxy)-3-(2-methyl-2H-pyrazol-3-yl)-phenyl]-2-(4-fluoro-phenyl)-2-oxo-acetamide], the IC50 turned out to be 0.025 nM. Same read-out and setting: in the case of `Cn1ncc(Cl)c1-c1cc(NC(=O)c2cc(Br)cs2)ccc1OCCN` [Compound 77, 4-bromo-thiophene-2-carboxylic acid [4-(2-amino-ethoxy)-3-(4-chloro-2-methyl-2H-pyrazol-3-yl)-phenyl]-amide trifluoroacetate] it was 1.2 nM; in that of `Cn1nccc1-c1cc(NC(=O)c2ccno2)ccc1OCCN` [Compound 106, Isoxazole-5-carboxylic acid [4-(2-amino-ethoxy)-3-(2-methyl-2H-pyrazol-3-yl)-phenyl]-amide], 91 nM; in that of `Cn1ncc(Cl)c1-c1cc(NC(=O)c2ccc(F)c(C(F)(F)F)c2)ccc1OCCN` [Compound 197, N-[4-(2-amino-ethoxy)-3-(4-chloro-2-methyl-2H-pyrazol-3-yl)-phenyl]-4-fluoro-3-trifluoromethyl-benzamide trifluoroacetate], 1 nM.

With `Cn1ncc(Cl)c1-c1cc(NC(=O)C2CCC(C(F)(F)F)CC2)ccc1OCCN` (stereo not shown) [Compound 303, 4-trifluoromethyl-cyclohexanecarboxylic acid [4-(2-amino-ethoxy)-3-(4-chloro-2-methyl-2H-pyrazol-3-yl)-phenyl]-amide trifluoroacetate], the half-inhibitory concentration (IC50) was 0.26 nM.

A further experiment concerns JC virus.
Experiment: not given
The conditions noted are these: cited from earlier work.
Regarding `O=C(c1ccc(F)cc1)C1CCN(CCn2c(=O)[nH]c3ccccc3c2=O)CC1` [ketanserin], the “JC virus infection of human glial cells” value is recorded as “inhibited”. For `Cc1nc2sccn2c(=O)c1CCN1CCC(=C(c2ccc(F)cc2)c2ccc(F)cc2)CC1` [ritanserin], the “JC virus infection of human glial cells” value is listed as “inhibited”.

(Values after patent US8664258B2, “Primary amines and derivatives thereof as modulators of the 5-HT2A serotonin receptor useful for the treatment of disorders related thereto” (Arena Pharmaceuticals, Inc., priority 2006, dated 2014).)
